Tests used:
MV-4-11 cells = assay: Cell growth inhibition assay (CellTiter-Glo), MV-4-11; type: cell-based; conditions: Homo sapiens, MV4-11
Method: (§1) Cell Growth Inhibition Assay
(§2) The human leukemia cell lines MV-4-11, THP-1 and K-562 were employed to characterize the effect of BET inhibitors on cellular proliferation and viability. Cells were obtained from the American Type Culture Collection (ATCC) and cultured at 37° C. in a humidified 5% CO2 incubator in the following media: MV-4-11: DMEM high glucose (Animed #1-26F01-I), 10% FCS (Animed #2-01F26-I), 4 mM L-Glutamine (Animed #5-10K50), 1 mM Sodium Pyruvate (Animed # G03625P), 1× Penicillin-Streptomycin (Animed # F12478P); K-562: Iscove's MEM (Animed #1-28F16-I), 10% FCS (Animed #2-01F26-I), 4 mM L-Glutamine (Animed #5-10K50), 1× Penicillin-Streptomycin (Animed # F12478P); THP-1: RPMI-1640 (Animed #1-41F01-I), 10% FCS (Animed #2-01F26-I), 2 mM L-Glutamine (Animed #5-10K50), 10 mM HEPES (Animed #5-31F100), 1 mM Sodium Pyruvate (Animed # G03625P), 1× Penicillin-Streptomycin (Animed # F12478P). The AML lines MV-4-11 and THP-1 are very sensitive to BET inhibitors and show massive cell death upon BET inhibition (Zuber et al., Nature, 478 (2011), 524-8). Compound-mediated suppression of cell proliferation/viability was assessed by quantification of cellular ATP levels using the CellTiter-Glo (CTG) reagent (Promega). Briefly, cells were seeded in 20 μl fresh medium into 384-well plates, followed by addition of 5 μL medium containing compound dilutions at 5-fold their final intended concentration. Dose-response effects were assessed by 3-fold serial dilutions of the test compound, starting at 10 μM. Following incubation of the cells for 4 days at 37° C. and 5% CO2, the effect of inhibitors on cell viability was quantified following addition of 20 μl CTG and luminescence quantification (integration time: 100 ms) as per vendor manual, using a correspondingly equipped Tecan M200 multi-mode platereader (TECAN, Switzerland). For data analysis, the assay background value determined in wells containing medium, but no cells, was subtracted from all data points. To enable differentiation of cytotoxic from cytostatic compounds, the number of viable cells is assessed relative to that observed at the time of compound addition using a separate cell plate (day 0). The effect of a particular test compound concentration on cell proliferation/viability is expressed as percentage of the background- and day 0-corrected luminescence reading obtained for cells treated with vehicle only (DMSO, 0.1% final concentration), which is set as 100%, whereas that luminescence reading for wells containing medium is set as −100%. Compound concentrations leading to half-maximal (1050) and total growth inhibition (TGI) were determined using standard four parameter curve fitting.

THP-1 cells = assay: Cell growth inhibition assay (CellTiter-Glo), THP-1; type: cell-based; conditions: Homo sapiens
Method: as §1, §2

K-562 cells = assay: Cell growth inhibition assay (CellTiter-Glo), K-562; type: cell-based, human; conditions: for GI50: Homo sapiens, K562
Method: as §1, §2

SMILES	GI50 (MV-4-11 cells) [nM]	GI50 (THP-1 cells) [nM]	GI50 (K-562 cells) [nM]	IC (TGI) (K-562 cells) [nM]
Cc1cc(N2C(=O)c3n[nH]cc3C2c2ccc(Cl)cc2)cn(C)c1=O (centres unmarked) [Example 26, 4-(4-chlorophenyl)-5-(1,5-dimethyl-6-oxo-1,6-dihydropyridin-3-yl)-4,5-dihydropyrrolo[3,4-c]pyrazol-6(2H)-one]	204	297	1500	
Cc1[nH]nc2c1C(c1ccc(Cl)cc1)N(c1cc(C)c(=O)n(C)c1)C2=O (centres unmarked) [Example 27, 4-(4-chlorophenyl)-5-(1,5-dimethyl-6-oxo-1,6-dihydropyridin-3-yl)-3-methyl-4,5-dihydropyrrolo[3,4-c]pyrazol-6(2H)-one]	55.9	120	463	
Cc1cc(N2C(=O)c3c(cnn3C3CC3)C2c2ccc(Cl)cc2)cn(C)c1=O (centres unmarked) [Example 34, 4-(4-chlorophenyl)-1-cyclopropyl-5-(1,5-dimethyl-6-oxo-1,6-dihydropyridin-3-yl)-4,5-dihydropyrrolo[3,4-c]pyrazol-6(1H)-one]	82.8	162	601	
Cn1cc(N2C(=O)c3c(cnn3C3CC3)C2c2ccc(Cl)cc2)cc(Cl)c1=O (centres unmarked) [Example 35, 5-(5-chloro-1-methyl-6-oxo-1,6-dihydropyridin-3-yl)-4-(4-chlorophenyl)-1-cyclopropyl-4,5-dihydropyrrolo[3,4-c]pyrazol-6(1H)-one]	105	239	905	
Cc1cc(N2C(=O)c3c(cnn3C(C)C)C2c2ccc(Cl)cc2)cn(C)c1=O (centres unmarked) [Example 36, 4-(4-chlorophenyl)-5-(1,5-dimethyl-6-oxo-1,6-dihydropyridin-3-yl)-1-isopropyl-4,5-dihydropyrrolo-[3,4-c]pyrazol-6(1H)-one]	53.4	103	430	
Cn1cc(N2C(=O)c3c(c(C(F)(F)F)nn3C3CC3)C2c2ccc(Cl)cc2)cc(Cl)c1=O (centres unmarked) [Example 44, 5-(5-chloro-1-methyl-6-oxo-1,6-dihydropyridin-3-yl)-4-(4-chlorophenyl)-1-cyclopropyl-3-(trifluoromethyl)-4,5-dihydropyrrolo[3,4-c]pyrazol-6(1H)-one]	217	308	658	
Cc1cc(N2C(=O)c3c(c(C(F)(F)F)nn3C3CC3)C2c2ccc(Cl)cc2)cn(C)c1=O (centres unmarked) [Example 45, 4-(4-chlorophenyl)-1-cyclopropyl-5-(1,5-dimethyl-6-oxo-1,6-dihydropyridin-3-yl)-3-(trifluoromethyl)-4,5-dihydropyrrolo[3,4-c]pyrazol-6(1H)-one]	251	357	994	
COc1ncc(-n2nc3c(c2C(C)C)C(c2ccc(Cl)cc2)N(c2cc(C)c4onc(C)c4c2)C3=O)c(OC)n1 (centres unmarked) [Example 46, 4-(4-chlorophenyl)-2-(2,4-dimethoxypyrimidin-5-yl)-5-(3,7-dimethylbenzo[d]-isoxazol-5-yl)-3-isopropyl-4,5-dihydropyrrolo-[3,4-c]pyrazol-6(2H)-one]	115	177	370	>10000
COc1ncc(-n2nc3c(c2C(F)(F)F)C(c2ccc(Cl)cc2)N(c2cc(Cl)c(=O)n(C)c2)C3=O)c(OC)n1 (centres unmarked) [Example 47, 5-(5-chloro-1-methyl-6-oxo-1,6-dihydropyridin-3-yl)-4-(4-chlorophenyl)-2-(2,4-dimethoxypyrimidin-5-yl)-3-(trifluoromethyl)-4,5-dihydropyrrolo[3,4-c]pyrazol-6(2H)-one]	113	414	709	
Cc1nn(C2CC2)c2c1[C@@H](c1ccc(Cl)cc1)N(c1cc(C)c(=O)n(C)c1)C2=O [Example 49, (R)-4-(4-chlorophenyl)-1-cyclopropyl-5-(1,5-dimethyl-6-oxo-1,6-dihydropyridin-3-yl)-3-methyl-4,5-dihydropyrrolo-[3,4-c]pyrazol-6(1H)-one]	24.1	29	120	
Cc1nn(C2CC2)c2c1[C@@H](c1ccc(Cl)cc1)N(c1cc(Cl)c(=O)n(C)c1)C2=O [Example 51, (R)-5-(5-chloro-1-methyl-6-oxo-1,6-dihydropyridin-3-yl)-4-(4-chlorophenyl)-1-cyclopropyl-3-methyl-4,5-dihydropyrrolo-[3,4-c]pyrazol-6(1H)-one]	51.9	72.5	318	
COc1ncc(-n2nc(C)c3c2C(=O)N(c2cc(Cl)c(=O)n(C)c2)C3c2ccc(Cl)cc2)c(OC)n1 (centres unmarked) [Example 53, 5-(5-chloro-1-methyl-6-oxo-1,6-dihydropyridin-3-yl)-4-(4-chlorophenyl)-1-(2,4-dimethoxypyrimidin-5-yl)-3-methyl-4,5-dihydropyrrolo[3,4-c]pyrazol-6(1H)-one]	249	374	953	
COc1ncc(-n2nc3c(c2C(C)C)C(c2ccc(Cl)cc2)N(c2ccc4onc(C)c4c2)C3=O)c(OC)n1 (centres unmarked) [Example 54, 4-(4-chlorophenyl)-2-(2,4-dimethoxypyrimidin-5-yl)-3-isopropyl-5-(3-methylbenzo-[d]isoxazol-5-yl)-4,5-dihydropyrrolo[3,4-c]pyrazol-6(2H)-one]	458	637	1530	
COc1ncc(-n2nc3c(c2C)C(c2ccc(Cl)cc2)N(c2cc(Cl)c(=O)n(C)c2)C3=O)c(OC)n1 (centres unmarked) [Example 55, 5-(5-chloro-1-methyl-6-oxo-1,6-dihydropyridin-3-yl)-4-(4-chlorophenyl)-2-(2,4-dimethoxypyrimidin-5-yl)-3-methyl-4,5-dihydropyrrolo[3,4-c]pyrazol-6(2H)-one]	89.1	231	400	
COc1ncc(-n2nc3c(c2C)C(c2ccc(Cl)cc2)N(c2cc(C)c(=O)n(C)c2)C3=O)c(OC)n1 (centres unmarked) [Example 56, 4-(4-chlorophenyl)-2-(2,4-dimethoxypyrimidin-5-yl)-5-(1,5-dimethyl-6-oxo-1,6-dihydropyridin-3-yl)-3-methyl-4,5-dihydropyrrolo[3,4-c]pyrazol-6(2H)-one]	57.4	70.2	265	
Cc1nn(C)c2c1C(c1ccc(Cl)cc1)N(c1cc(C)c(=O)n(C)c1)C2=O (centres unmarked) [Example 57, 4-(4-chlorophenyl)-5-(1,5-dimethyl-6-oxo-1,6-dihydropyridin-3-yl)-1,3-dimethyl-4,5-dihydropyrrolo-[3,4-c]pyrazol-6(1H)-one]	69.5	117	480	
Cc1nn(C)c2c1C(c1ccc(Cl)cc1)N(c1cc(Cl)c(=O)n(C)c1)C2=O (centres unmarked) [Example 58, 5-(5-chloro-1-methyl-6-oxo-1,6-dihydropyridin-3-yl)-4-(4-chlorophenyl)-1,3-dimethyl-4,5-dihydropyrrolo[3,4-c]pyrazol-6(1H)-one]	94.4	189	1140	
COc1nccc(-n2nc(C)c3c2C(=O)N(c2cc(C)c(=O)n(C)c2)C3c2ccc(Cl)cc2)n1 (centres unmarked) [Example 59, 4-(4-chlorophenyl)-5-(1,5-dimethyl-6-oxo-1,6-dihydropyridin-3-yl)-1-(2-methoxypyrimidin-4-yl)-3-methyl-4,5-dihydropyrrolo[3,4-c]pyrazol-6(1H)-one]	220	317	1250	
CCc1nn(-c2cnc(OC)nc2OC)c2c1C(c1ccc(Cl)cc1)N(c1cc(C)c(=O)n(C)c1)C2=O (centres unmarked) [Example 60, 4-(4-chlorophenyl)-1-(2,4-dimethoxypyrimidin-5-yl)-5-(1,5-dimethyl-6-oxo-1,6-dihydropyridin-3-yl)-3-ethyl-4,5-dihydropyrrolo[3,4-c]pyrazol-6(1H)-one]	86.9	166	456	
COc1ncc(-n2nc3c(c2C(C)C)[C@@H](c2ccc(Cl)cc2)N(c2cc(C)c4onc(C)c4c2)C3=O)c(OC)n1 [Example 62, (R)-4-(4-chlorophenyl)-2-(2,4-dimethoxypyrimidin-5-yl)-5-(3,7-dimethylbenzo[d]-isoxazol-5-yl)-3-isopropyl-4,5-dihydropyrrolo[3,4-c]pyrazol-6(2H)-one]	58.4	97.7	316	>10000

— US20160095843A1, “PYRAZOLOPYRROLIDINE DERIVATIVES AND THEIR USE IN THE TREATMENT OF DISEASE” (NOVARTIS AG, priority 2013, published 2016)
